The values that follow come from ChEMBL document CHEMBL4823291, “Discovery of 5,6,7,8-tetrahydropyrido[3,4-d]pyrimidine derivatives as novel selective Axl inhibitors” (Bioorg Med Chem Lett, 2021).

For the first assay, the species on record is Homo sapiens. The assay is described as follows: Ratio of IC50 for Mer (unknown origin) to IC50 for Axl (unknown origin).
On to `CC(C)Cn1cc(C(=O)Nc2ccc(Oc3ncnc4c3CCN(CC3CCN(C)CC3)C4)c(F)c2)c(=O)n(-c2ccc(F)cc2)c1=O`, for which the Ratio IC50 was 20.
Consider `CC(C)n1cc(C(=O)Nc2ccc(Oc3ncnc4c3CCN(C3CCN(CC5CC5)CC3)C4)c(F)c2)c(=O)n(-c2ccc(F)cc2)c1=O`, for which the Ratio IC50 turned out to be 9.7.
Same read-out and setting: the same measure for `Cc1ccc(-n2c(=O)c(C(=O)Nc3ccc(Oc4ncnc5c4CCN(CC4CCN(C)CC4)C5)c(F)c3)cn(CC3CC3)c2=O)nc1`: 51.

The next assay deals with BaF3. The assay is described as follows: Ratio of IC50 for Mer in mouse BaF3 cells to IC50 for Axl in mouse BaF3 cells. The assay is classed as cell-based.
`CC(C)Cn1cc(C(=O)Nc2ccc(Oc3ncnc4c3CCN(CC3CCN(C)CC3)C4)c(F)c2)c(=O)n(-c2ccc(F)cc2)c1=O`: the Ratio IC50 is 2.4.
Still for that read-out and setting: for `CC(C)n1cc(C(=O)Nc2ccc(Oc3ncnc4c3CCN(C3CCN(CC5CC5)CC3)C4)c(F)c2)c(=O)n(-c2ccc(F)cc2)c1=O` the value was 4.
In the case of `Cc1ccc(-n2c(=O)c(C(=O)Nc3ccc(Oc4ncnc5c4CCN(CC4CCN(C)CC4)C5)c(F)c3)cn(CC3CC3)c2=O)nc1`, the Ratio IC50 was found to be 6.2.

The next assay deals with T1, Tyrosine-protein kinase receptor UFO (Homo sapiens, UniProt P30530).
T1 sequence (P30530 whole entry): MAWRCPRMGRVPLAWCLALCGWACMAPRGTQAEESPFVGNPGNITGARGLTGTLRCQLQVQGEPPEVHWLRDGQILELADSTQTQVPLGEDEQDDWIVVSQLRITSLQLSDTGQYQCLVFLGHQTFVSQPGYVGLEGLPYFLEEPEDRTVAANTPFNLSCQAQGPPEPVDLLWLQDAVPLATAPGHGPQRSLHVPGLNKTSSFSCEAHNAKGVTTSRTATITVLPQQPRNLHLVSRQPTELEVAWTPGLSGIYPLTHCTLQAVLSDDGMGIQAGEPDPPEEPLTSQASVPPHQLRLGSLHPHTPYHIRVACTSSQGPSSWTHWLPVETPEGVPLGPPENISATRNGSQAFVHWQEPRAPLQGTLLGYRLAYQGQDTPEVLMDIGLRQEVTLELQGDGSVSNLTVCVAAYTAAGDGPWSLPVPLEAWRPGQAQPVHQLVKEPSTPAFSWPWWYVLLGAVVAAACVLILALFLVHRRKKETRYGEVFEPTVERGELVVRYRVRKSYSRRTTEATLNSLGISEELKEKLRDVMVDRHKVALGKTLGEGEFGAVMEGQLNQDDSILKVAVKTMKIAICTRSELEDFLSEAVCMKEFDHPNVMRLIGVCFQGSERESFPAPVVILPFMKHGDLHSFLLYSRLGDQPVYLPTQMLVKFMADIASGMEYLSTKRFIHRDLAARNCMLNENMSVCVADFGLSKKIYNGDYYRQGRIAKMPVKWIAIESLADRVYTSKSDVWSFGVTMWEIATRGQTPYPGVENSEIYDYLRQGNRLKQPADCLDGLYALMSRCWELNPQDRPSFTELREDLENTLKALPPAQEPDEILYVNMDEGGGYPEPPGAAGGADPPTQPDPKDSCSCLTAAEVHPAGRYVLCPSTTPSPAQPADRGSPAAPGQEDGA
Description: Inhibition of Axl (unknown origin) by cell free assay.
`CC(C)Cn1cc(C(=O)Nc2ccc(Oc3ncnc4c3CCN(CC3CCN(C)CC3)C4)c(F)c2)c(=O)n(-c2ccc(F)cc2)c1=O` returned an IC50 of 5.5 nM.
On the same count and under the same terms, the same measure for `CC(C)n1cc(C(=O)Nc2ccc(Oc3ncnc4c3CCN(C3CCN(CC5CC5)CC3)C4)c(F)c2)c(=O)n(-c2ccc(F)cc2)c1=O`: 3.5 nM.
On the same count and under the same terms, for `Cc1ccc(-n2c(=O)c(C(=O)Nc3ccc(Oc4ncnc5c4CCN(CC4CCN(C)CC4)C5)c(F)c3)cn(CC3CC3)c2=O)nc1` the value was 5.3 nM.

Another assay addresses T2, Tyrosine-protein kinase receptor UFO (Mus musculus, UniProt Q00993).
T2 sequence (Q00993 whole entry): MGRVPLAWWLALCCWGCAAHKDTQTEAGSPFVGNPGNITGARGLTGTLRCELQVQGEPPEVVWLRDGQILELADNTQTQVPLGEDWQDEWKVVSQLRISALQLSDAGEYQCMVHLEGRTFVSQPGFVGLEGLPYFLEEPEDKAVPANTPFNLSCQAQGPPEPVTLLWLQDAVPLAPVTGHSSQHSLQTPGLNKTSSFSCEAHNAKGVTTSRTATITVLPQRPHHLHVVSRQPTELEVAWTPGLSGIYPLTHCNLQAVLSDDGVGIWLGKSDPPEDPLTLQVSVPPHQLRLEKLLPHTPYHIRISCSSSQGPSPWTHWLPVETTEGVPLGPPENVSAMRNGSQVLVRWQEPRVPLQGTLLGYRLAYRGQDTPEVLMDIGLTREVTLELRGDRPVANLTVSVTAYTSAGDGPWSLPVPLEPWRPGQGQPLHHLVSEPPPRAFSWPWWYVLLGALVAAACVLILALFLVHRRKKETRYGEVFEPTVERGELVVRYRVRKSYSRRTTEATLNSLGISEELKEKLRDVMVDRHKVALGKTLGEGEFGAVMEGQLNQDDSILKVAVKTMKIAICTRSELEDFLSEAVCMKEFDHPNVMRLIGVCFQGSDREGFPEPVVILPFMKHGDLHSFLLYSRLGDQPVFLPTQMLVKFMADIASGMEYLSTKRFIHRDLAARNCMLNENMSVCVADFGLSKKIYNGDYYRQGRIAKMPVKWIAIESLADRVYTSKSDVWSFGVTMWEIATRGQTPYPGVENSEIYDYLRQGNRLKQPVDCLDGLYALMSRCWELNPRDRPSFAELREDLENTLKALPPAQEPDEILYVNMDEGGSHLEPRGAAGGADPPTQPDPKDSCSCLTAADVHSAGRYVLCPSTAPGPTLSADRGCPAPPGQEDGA
The assay is described as follows: Inhibition of Axl in mouse BaF3 cells. The assay is classed as cell-based.
`CC(C)Cn1cc(C(=O)Nc2ccc(Oc3ncnc4c3CCN(CC3CCN(C)CC3)C4)c(F)c2)c(=O)n(-c2ccc(F)cc2)c1=O` gave a half-inhibitory concentration (IC50) of 46 nM.
The same measure, in the same setting: the same measure for `CC(C)n1cc(C(=O)Nc2ccc(Oc3ncnc4c3CCN(C3CCN(CC5CC5)CC3)C4)c(F)c2)c(=O)n(-c2ccc(F)cc2)c1=O`: 20 nM.
Same read-out and setting: the same measure for `Cc1ccc(-n2c(=O)c(C(=O)Nc3ccc(Oc4ncnc5c4CCN(CC4CCN(C)CC4)C5)c(F)c3)cn(CC3CC3)c2=O)nc1`: 34 nM.

The target of another assay is T3, Tyrosine-protein kinase Mer (Mus musculus, UniProt Q60805).
T3 sequence (Q60805 whole entry): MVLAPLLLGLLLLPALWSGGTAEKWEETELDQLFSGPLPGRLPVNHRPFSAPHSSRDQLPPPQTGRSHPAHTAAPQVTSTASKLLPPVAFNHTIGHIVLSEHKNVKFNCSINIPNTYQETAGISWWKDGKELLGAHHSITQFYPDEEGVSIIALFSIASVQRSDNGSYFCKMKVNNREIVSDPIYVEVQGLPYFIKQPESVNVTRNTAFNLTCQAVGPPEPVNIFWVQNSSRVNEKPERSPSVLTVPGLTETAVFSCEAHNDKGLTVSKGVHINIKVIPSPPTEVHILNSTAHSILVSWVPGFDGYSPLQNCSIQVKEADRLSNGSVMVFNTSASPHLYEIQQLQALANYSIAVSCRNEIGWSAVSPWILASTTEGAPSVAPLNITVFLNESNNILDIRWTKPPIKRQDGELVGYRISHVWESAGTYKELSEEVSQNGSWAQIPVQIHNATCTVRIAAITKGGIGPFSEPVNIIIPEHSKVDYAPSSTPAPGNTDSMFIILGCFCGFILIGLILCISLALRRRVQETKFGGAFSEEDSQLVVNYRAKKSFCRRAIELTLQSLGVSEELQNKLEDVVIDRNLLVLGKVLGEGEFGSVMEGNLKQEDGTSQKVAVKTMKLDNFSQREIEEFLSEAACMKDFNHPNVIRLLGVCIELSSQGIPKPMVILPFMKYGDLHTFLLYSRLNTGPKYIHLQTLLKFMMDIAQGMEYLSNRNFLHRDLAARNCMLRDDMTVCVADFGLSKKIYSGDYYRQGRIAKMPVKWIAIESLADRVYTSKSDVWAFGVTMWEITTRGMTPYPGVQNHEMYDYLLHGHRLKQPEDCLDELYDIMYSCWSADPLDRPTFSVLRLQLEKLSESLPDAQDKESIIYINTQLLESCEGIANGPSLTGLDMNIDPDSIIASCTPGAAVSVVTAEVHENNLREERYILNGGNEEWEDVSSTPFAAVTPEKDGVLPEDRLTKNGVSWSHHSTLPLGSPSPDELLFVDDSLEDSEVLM
Description: Inhibition of Mer in mouse BaF3 cells. The assay is classed as cell-based.
Take `CC(C)Cn1cc(C(=O)Nc2ccc(Oc3ncnc4c3CCN(CC3CCN(C)CC3)C4)c(F)c2)c(=O)n(-c2ccc(F)cc2)c1=O`: the 50% inhibitory concentration (IC50) was found to be 110 nM.
As for `CC(C)n1cc(C(=O)Nc2ccc(Oc3ncnc4c3CCN(C3CCN(CC5CC5)CC3)C4)c(F)c2)c(=O)n(-c2ccc(F)cc2)c1=O`, half-maximal inhibition (IC50) required 79 nM. This IC50 and that of the molecule before are within 1.5-fold of each other.
Still for that read-out and setting: the same measure for `Cc1ccc(-n2c(=O)c(C(=O)Nc3ccc(Oc4ncnc5c4CCN(CC4CCN(C)CC4)C5)c(F)c3)cn(CC3CC3)c2=O)nc1`: 210 nM.

The target in a further assay is T4, Tyrosine-protein kinase Mer (Homo sapiens, UniProt Q12866).
T4 sequence (Q12866 whole entry): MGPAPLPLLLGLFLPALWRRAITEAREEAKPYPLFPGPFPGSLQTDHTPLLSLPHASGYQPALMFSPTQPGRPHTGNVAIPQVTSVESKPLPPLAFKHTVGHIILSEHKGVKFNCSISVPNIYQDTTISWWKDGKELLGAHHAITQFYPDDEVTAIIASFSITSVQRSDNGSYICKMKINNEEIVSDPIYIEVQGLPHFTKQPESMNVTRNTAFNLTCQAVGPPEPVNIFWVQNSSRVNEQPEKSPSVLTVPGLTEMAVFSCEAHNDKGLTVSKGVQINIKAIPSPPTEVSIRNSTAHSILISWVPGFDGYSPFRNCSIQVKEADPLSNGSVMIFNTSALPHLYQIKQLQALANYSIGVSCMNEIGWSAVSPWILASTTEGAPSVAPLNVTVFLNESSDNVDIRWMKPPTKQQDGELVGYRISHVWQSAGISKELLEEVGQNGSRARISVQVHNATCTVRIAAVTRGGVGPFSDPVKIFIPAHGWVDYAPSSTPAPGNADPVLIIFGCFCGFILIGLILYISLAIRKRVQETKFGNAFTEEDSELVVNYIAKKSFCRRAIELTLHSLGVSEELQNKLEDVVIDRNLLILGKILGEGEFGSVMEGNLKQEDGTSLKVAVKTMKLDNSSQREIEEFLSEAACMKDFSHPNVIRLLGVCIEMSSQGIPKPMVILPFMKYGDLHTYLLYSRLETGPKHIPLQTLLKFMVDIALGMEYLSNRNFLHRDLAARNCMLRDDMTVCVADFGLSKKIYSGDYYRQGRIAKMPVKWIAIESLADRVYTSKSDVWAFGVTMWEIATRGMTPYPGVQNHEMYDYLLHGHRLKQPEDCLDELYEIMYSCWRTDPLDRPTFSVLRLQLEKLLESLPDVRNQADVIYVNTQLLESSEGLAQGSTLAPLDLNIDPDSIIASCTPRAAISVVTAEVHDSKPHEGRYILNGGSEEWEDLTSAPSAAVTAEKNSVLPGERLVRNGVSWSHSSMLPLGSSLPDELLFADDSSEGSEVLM
The assay is described as follows: Inhibition of Mer (unknown origin) by cell free assay.
For `CC(C)Cn1cc(C(=O)Nc2ccc(Oc3ncnc4c3CCN(CC3CCN(C)CC3)C4)c(F)c2)c(=O)n(-c2ccc(F)cc2)c1=O`, the concentration for half-maximal inhibition (IC50) worked out at 110 nM.
Still for that read-out and setting: for `CC(C)n1cc(C(=O)Nc2ccc(Oc3ncnc4c3CCN(C3CCN(CC5CC5)CC3)C4)c(F)c2)c(=O)n(-c2ccc(F)cc2)c1=O` the value was 34 nM; for `Cc1ccc(-n2c(=O)c(C(=O)Nc3ccc(Oc4ncnc5c4CCN(CC4CCN(C)CC4)C5)c(F)c3)cn(CC3CC3)c2=O)nc1`, 270 nM.

By IC50 is commonly meant the concentration at which inhibition is half-maximal. The low end stands for inhibition by little substance, the high end for a need for much substance.
